Values of other authors in patent US20230079480A1, “STABLE NON-AQUEOUS COMPOSITIONS OF FUNCTIONAL INGREDIENTS AND METHODS OF MAKING THE SAME” (Nulixir Inc., priority 2021, published 2023).

Tested on: not given
Settings: in vivo

| bioavailability | Compound |
| --- | --- |
| below 1% | COc1ccc2cc3[n+](cc2c1OC)CCc1cc2c(cc1-3)OCO2 [berberine] |

Tested on: many strains of fungi
Settings: not given

| Compound | inhibitory activity against fungi |
| --- | --- |
| O=CC=Cc1ccccc1 [Cinnamaldehyde] | strong inhibitory activity against many strains of fungi |

Tested on: not given
Settings: not given

| solubility in ethanol as a function of water content | Compound |
| --- | --- |
| decreases rapidly with water content | COc1ccc2cc3[n+](cc2c1OC)CCc1cc2c(cc1-3)OCO2 [berberine] |

Tested on: not given
Settings: pH 7

| Compound | log P |
| --- | --- |
| CC(C)=CCC[C@](C)(O[C@@H]1O[C@H](CO[C@@H]2O[C@H](CO)[C@@H](O)[C@H](O)[C@H]2O)[C@@H](O)[C@H](O)[C@H]1O)[C@H]1CC[C@]2(C)[C@@H]1[C@H](O)C[C@@H]1[C@@]3(C)CC[C@H](O[C@@H]4O[C@H](CO)[C@@H](O)[C@H](O)[C@H]4O[C@@H]4O[C@H](CO)[C@@H](O)[C@H](O)[C@H]4O)C(C)(C)[C@@H]3CC[C@]12C [ginsenoside rb1] | ~−1 |
| CC(C)=CCC[C@](C)(O[C@@H]1O[C@H](CO)[C@@H](O)[C@H](O)[C@H]1O)[C@H]1CC[C@]2(C)[C@@H]1[C@H](O)C[C@@H]1[C@@]3(C)CC[C@H](O)C(C)(C)[C@@H]3[C@@H](O[C@@H]3O[C@H](CO)[C@@H](O)[C@H](O)[C@H]3O)C[C@]12C [ginsenoside rg1] | ~0.8 |
| CC(C)=C[C@H]1C[C@](C)(O)[C@H]2[C@H]3CC[C@@H]4[C@@]5(C)CC[C@H](O[C@@H]6O[C@H](CO)[C@@H](O)[C@H](O[C@@H]7O[C@H](CO)[C@@H](O)[C@H](O)[C@H]7O)[C@H]6O[C@@H]6O[C@@H](CO)[C@H](O)[C@H]6O)C(C)(C)[C@@H]5CC[C@@]4(C)[C@@]34CO[C@@]2(C4)O1 [bacoside A3] | ~2.1 |
| COc1ccc(C23C=CC(O)CC2N(C)CC3)cc1OC (stereo not drawn) [mesembrenol] | ~2.4 |
| CC(C)=C[C@@H]1CO[C@]23C[C@]4(CO2)[C@H](CC[C@@H]2[C@@]5(C)CC[C@H](O[C@@H]6OC[C@H](O)[C@H](O[C@@H]7O[C@H](CO)[C@@H](O)[C@H](O)[C@H]7O)[C@H]6O[C@@H]6O[C@@H](CO)[C@H](O)[C@H]6O)C(C)(C)[C@@H]5CC[C@]24C)[C@H]3[C@@]1(C)O [bacopasaponin C] | ~2 |
| CC(C)=C[C@H]1C[C@](C)(O)[C@@H]2[C@H]3CC[C@@H]4[C@@]5(C)CC[C@H](O[C@@H]6OC[C@H](O)[C@H](O[C@@H]7O[C@H](CO)[C@@H](O)[C@H](O)[C@H]7O)[C@H]6O[C@@H]6O[C@@H](CO)[C@H](O)[C@H]6O)C(C)(C)[C@@H]5CC[C@@]4(C)[C@@]34CO[C@@]2(C4)O1 [bacopaside X] | ~2.2 |
| COc1ccc([C@@]23C=CC(=O)C[C@@H]2N(C)CC3)cc1OC [mesembrenone] | ~1.3 |

Same assay, conditions: water and n-octanol reference phases; pH=7 unless stated otherwise

| Compound | log P |
| --- | --- |
| tortuosomine | ~3 |
| COc1cc(/C=C/c2ccccc2)oc(=O)c1 [5,6-dehydrokawain] | ~2.9 |
| COC1=CC(=O)O[C@@H](CCc2ccc3c(c2)OCO3)C1 [7,8-dihydromethysticin] | ~2.2 |
| CC(=O)OC1C=CC(=O)N(C(=O)CCc2ccccc2)C1 (stereo not drawn) [pipermethystine] | ~1.8 |
| COc1cc2c(c(OC)c1OC)-c1c(cc3c(c1OC)OCO3)CC(C)C(C)C2 (single isomer, unassigned; (-)) [(−)-schisandrin B] | ~4 |
| (R)-kawain | ~2.7 |
| COc1cc2c(c(OC)c1OC)-c1c(cc(OC)c(OC)c1OC)C[C@H](C)[C@H](C)C2 [(−)-schisandrin A] | ~3.6 |
| N#C[C@@]1(O[C@@H]2O[C@H](CO)[C@@H](O)[C@H](O)[C@H]2O)C=C[C@@H](O)C1 [tetraphyllin B] | ~−2.5 |
| herinacine A | ~2.5 |
| Cn1c(=O)c2c(n(C)c1=O)n(C)c(=O)n2C [theacrine] | ~−1.06 |
| COc1ccc([C@@]23CCC(=O)C[C@@H]2N(C)CC3)cc1OC [mesembrine] | ~1.5 |
| COc1ccc(CCc2cc(OC)cc(=O)o2)cc1 [7,8-dihydroyangonin] | ~2.9 |
| COC1=CC(=O)OC(/C=C/c2ccc(OC)cc2)C1 (stereo not drawn) [5,6-dihydroyangonin] | ~2.5 |
| COc1cc2c(c(OC)c1OC)-c1c(cc(OC)c(OC)c1OC)C[C@](C)(O)[C@@H](C)C2 [(+)-schisandrin] | ~5 |
| bacopaside B | ~2.8 |
| CC1=C(CO)C(=O)O[C@@H]([C@@H](C)[C@H]2CC[C@H]3[C@@H]4C[C@H](Cl)[C@]5(O)[C@@H](O)C=CC(=O)[C@]5(C)[C@H]4CC[C@]23C)C1 [6a-chloro-5b-hydroxywithaferin A] | ~3.2 |
| COc1cc(/C=C\c2ccc(OC)c(O)c2)oc(=O)c1 [11-hydroxyyangonin] | ~2.2 |
| schisandroside C | ~1.6 |
| COc1c2c(cc3c1-c1c(cc4c(c1OC)OCO4)C[C@H](C)[C@H](C)C3)OCO2 [(−)-schisandrin C] | ~3.5 |
| COc1nc2c(c(=O)n1C)n(C)c(=O)n2C [methylliberine] | ~−0.083 |
| COc1cc2c(c(OC)c1OC)-c1c(cc(OC)c(OC)c1OC)C[C@](C)(O)[C@@H](C)C2 [schisandrol A] | ~3.4 |
| COc1cc([C@H]2Oc3cc(O)c4c(=O)c(O)c(-c5ccc(O)cc5)oc4c3O[C@@H]2CO)ccc1O [rhodiolin] | ~2 |
| hericerin | ~6.4 |
